Test results as given in BindingDB's records for doi:10.1021/jm0504499 (Universit&#224, 2005).

Tests used:
[1] = target: Metabotropic glutamate receptor 2 (Rattus norvegicus) (UniProt P31421); test: Effective concentration against mGluR2 receptor expressed in CHO cells
[2] = target: Metabotropic glutamate receptor 2 (Rattus norvegicus) (UniProt P31421); test: Binding affinity for mGluR2 receptor expressed in CHO cells

Sequence of Metabotropic glutamate receptor 2 (Rattus norvegicus) (P31421 whole entry, looked up): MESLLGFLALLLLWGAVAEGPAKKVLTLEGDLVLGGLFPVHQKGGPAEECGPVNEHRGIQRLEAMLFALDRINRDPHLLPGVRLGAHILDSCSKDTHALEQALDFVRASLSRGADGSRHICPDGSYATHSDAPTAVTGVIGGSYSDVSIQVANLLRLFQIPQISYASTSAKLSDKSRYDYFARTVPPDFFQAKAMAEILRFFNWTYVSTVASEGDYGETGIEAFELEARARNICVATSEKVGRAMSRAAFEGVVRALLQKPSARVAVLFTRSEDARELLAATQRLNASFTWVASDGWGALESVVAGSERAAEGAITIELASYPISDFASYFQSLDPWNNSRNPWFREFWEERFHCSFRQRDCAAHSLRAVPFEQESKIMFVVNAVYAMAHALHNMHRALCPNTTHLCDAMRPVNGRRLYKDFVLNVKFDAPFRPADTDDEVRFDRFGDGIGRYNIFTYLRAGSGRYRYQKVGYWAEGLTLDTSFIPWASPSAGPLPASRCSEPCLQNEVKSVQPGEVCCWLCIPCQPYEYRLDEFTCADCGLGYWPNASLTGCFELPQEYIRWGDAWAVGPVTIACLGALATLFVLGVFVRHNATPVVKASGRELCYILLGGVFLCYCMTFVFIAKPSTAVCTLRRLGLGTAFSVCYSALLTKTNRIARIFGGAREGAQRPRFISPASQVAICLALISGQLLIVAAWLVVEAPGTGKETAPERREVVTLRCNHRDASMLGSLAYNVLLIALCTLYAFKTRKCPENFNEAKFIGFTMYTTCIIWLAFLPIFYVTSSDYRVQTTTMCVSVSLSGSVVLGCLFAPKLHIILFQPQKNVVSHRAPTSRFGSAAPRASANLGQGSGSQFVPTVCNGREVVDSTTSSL

With N[C@@H](C[C@H]1CC(C(=O)O)=NO1)C(=O)O [5-(2-Amino-2-carboxy-ethyl)-4,5-dihydro-isoxazole-3-carboxylic acid] the EC50 [1] was > 1000 µM and the Ki [2] was > 1000 µM.
